Converted amounts (≈) assume the structure as drawn.
Experiment: Water solubility of test compounds compared with EPA
Assay type: physicochemical
Conditions: thermodynamic from solid; distilled water added in small portions until clear solution
Experimental: Measurement of the water solubility of the test compound was accomplished by using methods well known to those skilled in the art. Specifically, to a weighed amount of the test compounds of Example-1, Example-2, Example-3 and EPA were taken in separate vials; distilled water was added in small portions until a clear solution was obtained. The water solubility is calculated by dividing the weight of salt, in mg, by the volume of the solution, in mL. The water solubility of the compounds of example-1, example-2, example-3 compared to EPA alone were as follows: […]

| solubility | SMILES |
| --- | --- |
| < 0.3 mg/mL | CC/C=C\C/C=C\C/C=C\C/C=C\C/C=C\CCCC(=O)O [EPA, Eicosapentaenoic Acid, reference compound] |
| 60 mg/mL (≈ 119 mM) | CC/C=C\C/C=C\C/C=C\C/C=C\C/C=C\CCCC(=O)OCC(C)(C)[C@@H](O)C(=O)NCCC(=O)O [Example-1, amino(3,3-dimethylguanidino)methaniminium 3-((R)-2-hydroxy-4-((5Z,8Z,11Z,14Z,17Z)-icosa-5,8,11,14,17-pentaenoyloxy)-3,3-dimethylbutanamido) propanoate] |
| 103 mg/mL (≈ 169 mM) | CC/C=C\C/C=C\C/C=C\C/C=C\C/C=C\CCCC(=O)OCC(C)(C)[C@@H](OC(=O)c1cccnc1)C(=O)NCCC(=O)O [Example-2, amino(3,3-dimethylguanidino)methaniminium 3-((R)-4-((5Z,8Z,11Z,14Z,17Z)-icosa-5,8,11,14,17-pentaenoyloxy)-3,3-dimethyl-2-(nicotinoyloxy)butanamido)propanoate] |

| SMILES | solubility |
| --- | --- |
| CC/C=C\C/C=C\C/C=C\C/C=C\C/C=C\CCCC(=O)OCC(C)(C)[C@@H](OC(=O)c1ccccc1OC(=O)c1ccccc1OC(C)=O)C(=O)NCCC(=O)O [Example-3, amino(3,3-dimethylguanidino)methaniminium3-((R)-2-((2-((2-acetoxybenzoyl)oxy)benzoyl)oxy)-4-((5Z,8Z,11Z,14Z,17Z)-icosa-5,8,11,14,17-pentaenoyloxy)-3,3-dimethylbutanamido)propanoate] | 98 mg/mL (≈ 125 mM) |

From US9174931B2, “Compositions for the treatment of diabetes and pre-diabetes” (CELLIX BIO PRIVATE LIMITED, priority 2013, dated 2015)
